# Data published in patent EP3889262A1, “INHIBITION OF CASPASE-3 BY THE MICRORNA 126-5P” (Ludwig-Maximilians-Universität München, priority 2020, dated 2021).
# Peptide text beside a SMILES is read from it. * marks the point of attachment. Cbz = O=C(OCc1ccccc1)*; CH2F = FC*
# What was measured:
# HUVECs = experiment: qPCR of miR-126 strand amounts and nucleo-cytoplasmic distribution in HUVECs; format: cell-based, human; conditions: for nuclear miR-126-5p: fractional qPCR, ivermectin with rapamycin, 3-methyladenine with KLF2 overexpression
# Protocol: HUVECs were treated with rapamycin (Santa Cruz Biotechnology) at 5 µM, ivermectin (Santa Cruz Biotechnology) at […], 3-methyladenine (Sigma Aldrich) at 5 mM, and/or camptothecin (Abcam) at 500 nM. Unless stated otherwise, treatment was applied for 3 h to analyze early processes and to avoid activation of concomitant or compensatory mechanisms. RNA interference technology was applied to generate specific knockdowns with siRNA against ATG5, ATG7, Mex3a (Qiagen). Functional studies on miRNA function were carried with miScript miRNA mimics and inhibitors of miR-126-5p (Qiagen). Overexpression of KLF2 and Mex3a were obtained by pCMV-hKLF2 and pCMV-hMex3a plasmids. Transfections were performed by electroporation using Amaxa Nucleofector technology (Lonza) or Lipofectamine™ 2000 (ThermoFisher Scientific) according to the manufacturer's protocols.
# recombinant caspase-3 = target: T1, recombinant caspase-3 (Homo sapiens, UniProt P42574); experiment: Cell-free analysis of caspase-3 activity (substrate cleavage); format: biochemical; conditions: substrate cleavage by recombinant caspase-3, cell-free
# T1 sequence (P42574 29-175 limits assumed): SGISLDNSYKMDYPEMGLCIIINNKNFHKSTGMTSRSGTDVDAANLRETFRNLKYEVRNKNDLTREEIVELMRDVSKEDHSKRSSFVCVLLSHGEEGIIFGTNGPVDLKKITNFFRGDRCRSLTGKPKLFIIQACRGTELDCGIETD
# T1 sequence (P42574 176-277 limits assumed): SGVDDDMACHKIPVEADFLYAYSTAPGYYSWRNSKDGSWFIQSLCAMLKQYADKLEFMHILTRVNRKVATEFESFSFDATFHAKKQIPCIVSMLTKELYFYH
Compound,nuclear miR-126-5p (HUVECs),also measured
CO/C1=C\C(C)=C\[C@@H](C)[C@@H](O)[C@@H](C)C/C(C)=C/C=C/[C@H](OC)[C@@H]([C@@H](C)[C@@H](O)[C@H](C)[C@@]2(O)C[C@@H](O)[C@H](C)[C@@H](C(C)C)O2)OC1=O [bafilomycin],–,amount of miR-126-3p (HUVECs; ECs): restored
ivermectin,prevented,–
COC(=O)C[C@H](NC(=O)[C@H](C)NC(=O)[C@@H](NC(=O)OCc1ccccc1)C(C)C)C(=O)CF [Z-VAD-FMK] (Cbz-Val-Ala-Asp(OMe)-CH2F),–,IC50 (recombinant caspase-3): 75.9 µM
Cn1cnc(N)c2ncnc1-2 [3-methyladenine],blunted,–
